Reference: patent US20130230485A1, “Methods for Treating Patients Undergoing Multi-Cycle Chemotherapy” (priority 2012, published 2013)
Entries after “also recorded” stand apart in the source; their conditions may differ.

Tests used:
[1] = test system: patients with recurrent ovarian cancer receiving gemcitabine and a platin; assay: Phase 2 study: pharmacodynamic effects on peripheral platelet counts and ANC; format: in vivo, human
Excerpt: (§1) Following Institutional Review Board protocol approval and patient signature of an informed consent form, eligible patients were randomized in a 1:1:1 ratio to receive 100 mcg/kg/day TXA127, 300 mcg/kg/day TXA127, or placebo with gemcitabine plus carboplatin or cisplatin. The randomization was stratified by the patients' intended chemotherapy regimen (see below). The Investigator, patient, and Sponsor were blinded to the treatment assignment. Treatment consisted of up to six consecutive 21-day cycles of one of the following chemotherapy regimens:
(§2) Regimen A • Intravenous cisplatin therapy at a dose between 30 and 50 mg/m^2 (inclusive) given on Day 1 of the cycle • Intravenous gemcitabine at a dose of 800 mg/m^2 given on Day 1 after cisplatin and on Day 8 of the cycle • Regimen B • Intravenous gemcitabine at a dose of 1,000 mg/m^2 given on Days 1 and 8 of the cycle • Intravenous carboplatin AUC range of 4-6 given on Day 1 of the cycle after gemcitabine
(§3) Study drug (TXA127 or placebo) was administered subcutaneously during each treatment cycle once daily for 5 consecutive days following the first chemotherapy agent (Days 2-6) and for 7 consecutive days following the second chemotherapy agent (Days 9-15). At Baseline, End-of-Treatment and weekly throughout each treatment cycle, blood specimens were collected for determination of hematologic variables. Hematologic responses were evaluated based on the National Cancer Institute Common Terminology Criteria for Adverse Events (NCl-CTCAE), Version 3.0.
The following parameters were evaluated to assess the pharmacodynamic effects of TXA127 on peripheral platelet counts: nadir platelet count, maximal platelet count, and maximum percentage increase and decrease from baseline.

[2] = test system: patients with recurrent ovarian cancer receiving gemcitabine and a platin; assay: Phase 2 study: adverse events / safety analysis; format: in vivo, human
Excerpt: as §1, §2, §3
Thirty-two patients who underwent randomization were included in the efficacy analysis according to their randomly assigned treatment group (intention-to-treat principle). Two additional patients were excluded from this analysis: one patient treated with 100 mcg/kg TXA127 was excluded due to consent withdrawal and one patient treated with 300 mcg/kg TXA127 was excluded due to disease progression. Both patients initiated a single cycle of chemotherapy and had no study drug-related adverse events. All patients were included in the safety analysis.

With `CC[C@H](C)[C@H](NC(=O)[C@H](Cc1ccc(O)cc1)NC(=O)[C@@H](NC(=O)[C@H](CCCNC(=N)N)NC(=O)[C@@H](N)CC(=O)O)C(C)C)C(=O)N[C@@H](Cc1c[nH]cn1)C(=O)N1CCC[C@H]1C(=O)O` [TXA127, Asp-Arg-Val-Tyr-Ile-His-Pro] the “ANC relative to placebo (in words)” value ([1]; 100 mcg/kg TXA127) was “decrease in the nadir ANC relative to placebo; also recorded: significant reduction in ANC”, the “maximal percentage decrease in ANC post-baseline” value ([1]; 100 mcg/kg TXA127) was 85% and the “maximal percentage decrease in ANC post-baseline” value ([1]; 300 mcg/kg TXA127) was 78%. The “Frequency of Adverse Events: Abdominal Distension” value ([2]; 100 mcg group (11 patients)) was 1, the “Frequency of Adverse Events: Abdominal Pain” value ([2]; 100 mcg group (11 patients)) was 4 and the “Frequency of Adverse Events: Anaemia” value ([2]; 100 mcg group (11 patients)) was 4. For the same molecule, the “Frequency of Adverse Events: Arthralgia” value ([2]; 100 mcg group (11 patients)) was 1, the “Frequency of Adverse Events: Back Pain” value ([2]; 100 mcg group (11 patients)) was 5 and the “Frequency of Adverse Events: Constipation” value ([2]; 100 mcg group (11 patients)) was 7. For the same molecule, the “Frequency of Adverse Events: Cough” value ([2]; 100 mcg group (11 patients)) was 0, the “Frequency of Adverse Events: Decreased Appetite” value ([2]; 100 mcg group (11 patients)) was 3 and the “Frequency of Adverse Events: Dizziness” value ([2]; 100 mcg group (11 patients)) was 3. For the same molecule, the “Frequency of Adverse Events: Dyspepsia” value ([2]; 100 mcg group (11 patients)) was 4, the “Frequency of Adverse Events: Dyspnea” value ([2]; 100 mcg group (11 patients)) was 0 and the “Frequency of Adverse Events: Dysuria” value ([2]; 100 mcg group (11 patients)) was 2. The “Frequency of Adverse Events: Epistaxis” value ([2]; 100 mcg group (11 patients)) was 0, the “Frequency of Adverse Events: Fatigue” value ([2]; 100 mcg group (11 patients)) was 6 and the “Frequency of Adverse Events: Headache” value ([2]; 100 mcg group (11 patients)) was 5. For the same molecule, the “Frequency of Adverse Events: Hypersensitivity” value ([2]; 100 mcg group (11 patients)) was 1, the “Frequency of Adverse Events: Leukopenia” value ([2]; 100 mcg group (11 patients)) was 3 and the “Frequency of Adverse Events: Nausea” value ([2]; 100 mcg group (11 patients)) was 7. For the same molecule, the “Frequency of Adverse Events: Neutropenia” value ([2]; 100 mcg group (11 patients)) was 5, the “Frequency of Adverse Events: Oropharyngeal Pain” value ([2]; 100 mcg group (11 patients)) was 1 and the “Frequency of Adverse Events: Pyrexia” value ([2]; 100 mcg group (11 patients)) was 3. The “Frequency of Adverse Events: Rash” value ([2]; 100 mcg group (11 patients)) was 1, the “Frequency of Adverse Events: Thrombocytopenia” value ([2]; 100 mcg group (11 patients)) was 5 and the “Frequency of Adverse Events: Vomiting” value ([2]; 100 mcg group (11 patients)) was 4. The thrombocytosis following treatment ([2]; 100 mcg/kg TXA127) was “One patient experienced thrombocytosis”, the “patients who discontinued study drug due to a treatment-emergent adverse event” value ([2]; 100 mcg/kg group) was “Two” and the “Frequency of Adverse Events: Abdominal Distension” value ([2]; 300 mcg group (13 patients)) was 4. For the same molecule, the “Frequency of Adverse Events: Abdominal Pain” value ([2]; 300 mcg group (13 patients)) was 1, the “Frequency of Adverse Events: Anaemia” value ([2]; 300 mcg group (13 patients)) was 5 and the “Frequency of Adverse Events: Arthralgia” value ([2]; 300 mcg group (13 patients)) was 1. The “Frequency of Adverse Events: Back Pain” value ([2]; 300 mcg group (13 patients)) was 5, the “Frequency of Adverse Events: Constipation” value ([2]; 300 mcg group (13 patients)) was 5 and the “Frequency of Adverse Events: Cough” value ([2]; 300 mcg group (13 patients)) was 2. For the same molecule, the “Frequency of Adverse Events: Decreased Appetite” value ([2]; 300 mcg group (13 patients)) was 0, the “Frequency of Adverse Events: Dizziness” value ([2]; 300 mcg group (13 patients)) was 3 and the “Frequency of Adverse Events: Dyspepsia” value ([2]; 300 mcg group (13 patients)) was 2. For the same molecule, the “Frequency of Adverse Events: Dyspnea” value ([2]; 300 mcg group (13 patients)) was 5, the “Frequency of Adverse Events: Dysuria” value ([2]; 300 mcg group (13 patients)) was 1 and the “Frequency of Adverse Events: Epistaxis” value ([2]; 300 mcg group (13 patients)) was 1. The “Frequency of Adverse Events: Fatigue” value ([2]; 300 mcg group (13 patients)) was 7, the “Frequency of Adverse Events: Headache” value ([2]; 300 mcg group (13 patients)) was 5 and the “Frequency of Adverse Events: Hypersensitivity” value ([2]; 300 mcg group (13 patients)) was 2. For the same molecule, the “Frequency of Adverse Events: Leukopenia” value ([2]; 300 mcg group (13 patients)) was 2, the “Frequency of Adverse Events: Nausea” value ([2]; 300 mcg group (13 patients)) was 9 and the “Frequency of Adverse Events: Neutropenia” value ([2]; 300 mcg group (13 patients)) was 8. For the same molecule, the “Frequency of Adverse Events: Oropharyngeal Pain” value ([2]; 300 mcg group (13 patients)) was 1, the “Frequency of Adverse Events: Pyrexia” value ([2]; 300 mcg group (13 patients)) was 2 and the “Frequency of Adverse Events: Rash” value ([2]; 300 mcg group (13 patients)) was 5. The “Frequency of Adverse Events: Thrombocytopenia” value ([2]; 300 mcg group (13 patients)) was 2, the “Frequency of Adverse Events: Vomiting” value ([2]; 300 mcg group (13 patients)) was 5 and the “patients who discontinued study drug due to a treatment-emergent adverse event” value ([2]; 300 mcg/kg group) was “Two”. For the same molecule, the “safety with these chemotherapy regimens” value ([2]; up to 6 cycles of gemcitabine + platin) was “The safety of TXA127 was demonstrated”.
